Measurements reported in patent US6831199B1, “Pyrimidine compounds and derivatives thereof” (G. D. Searle & Co., priority 1995, dated 2004).
Where a name gives a salt, the structure may show the parent alone. Read-outs that look alike come from different tables or passages of the source.

What was measured:
platelet rich plasma = assay: Human platelet rich plasma assay (ADP induced platelet aggregation); format: cell-based; conditions: read-out: Human PRP
Procedure: Human Platelet Rich Plasma Assays
Healthy aspirin free donors were selected from a pool of volunteers. The harvesting of platelet rich plasma and subsequent ADP induced platelet aggregation assays were performed as described in Zucker, M. B., “Platelet Aggregation Measured by the Photometric Method”, Methods in Enzymology 169(1989):117-133. Standard venipuncture techniques using a butterfly allowed the withdrawal of 45 mL of whole blood into a 60 mL syringe containing 5 mL of 3.8% trisodium citrate. Following thorough mixing in the syringe, the anti-coagulated whole blood was transferred to a 50 mL conical polyethylene tube. The blood was centrifuged at room temperature for 12 minutes at 200×g to sediment non-platelet cells. Platelet rich plasma was removed to a polyethylene tube and stored at room temperature until used. Platelet poor plasma was obtained from a second centrifugation of the remaining blood at 2000×g for 15 minutes. Platelet counts are typically 300,000 to 500,000 per microliter. Platelet rich plasma (0.45 mL) was aliquoted into siliconized cuvettes and stirred (1100 rpm) at 37° C. for 1 minute prior to adding 50 uL of pre-diluted test compound. After 1 minute of mixing, aggregation was initiated by the addition of 50 uL of 200 uM ADP. Aggregation was recorded for 3 minutes in a Payton dual channel aggregometer (Payton Scientific, Buffalo, N.Y.). The percent inhibition of maximal response (saline control) for a series of test compound dilutions was used to determine a dose response curve.

[1] = target: T1, Human vitronectin receptor (αvβ3) (Homo sapiens, UniProt P05106+P06756); assay: Vitronectin adhesion assay (solid phase receptor assay, competition with biotinylated vitronectin); format: binding; conditions: read-out: AvB3 IC50
T1 construct: Human vitronectin receptor (αvβ3) was purified from human placenta; from tissue; host or cells: human placenta
Method in brief: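 Purified human αvβ3 coated overnight at 4 °C in TBS with 1.0 mM Ca++, Mg++, Mn++, pH 7.4; compounds (top final 1.0×10^−4 M) competed with 1 nM biotinylated vitronectin for 2 h at room temperature. Bound ligand detected by HRP anti-biotin/OPD at A450; values normalized to no-competitor controls, four-parameter curve fit.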

[2] = target: T2, Human fibrinogen receptor (αIIbβ3) (Homo sapiens, UniProt P05106+P08514); assay: Purified IIb/IIIa receptor assay (solid phase receptor assay, competition with biotinylated vitronectin); format: binding; conditions: read-out: IIb/IIIa IC50
T2 construct: Human fibrinogen receptor (αIIbβ3) was purified from outdated platelets; from tissue; host or cells: outdated human platelets
Method in brief: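 Purified platelet αIIbβ3 coated overnight at 4 °C in TBS with 1.0 mM Ca/Mg/Mn, pH 7.4, then BSA-blocked. Compounds (top 1.0×10^−4 M) competed with 1 nM biotinylated vitronectin for 2 h at room temperature. Bound label detected by HRP anti-biotin, A450; values normalized to no-competitor controls, four-parameter fit.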

[3] = Homo sapiens, Platelet, ADP induced platelet aggregation in human platelet rich plasma

| SMILES | IC50 (platelet rich plasma; [3]) | IC50 [1] | IC50 [2] | IC50 (platelet rich plasma; ADP induced platelet aggregation in human platelet rich plasma) | IC50 (platelet rich plasma; Homo sapiens, Platelet) |
| --- | --- | --- | --- | --- | --- |
| N=C(N)Nc1cccc(C(=O)NCC(=O)NC(CC(=O)O)c2cc(Br)ccc2O)c1 (racemic) [Example 228, (±)β-[[2-[[[3-[(aminoiminomethyl)amino]phenyl]carbonyl]amino]acetyl]amino]-5-bromo-2-hydroxybenzenepropanoic acid, trifluoroacetate salt, monohydrate] | > 200000 nM | 3.36 nM | 583 nM | – | – |
| O=C(O)CC(NC(=O)CNC(=O)c1cccc(NC2=NCCCCC2)c1)c1cc(Cl)cc(Cl)c1O (racemic) [Example 232, (±)3,5-dichloro-2-hydroxy-β-[[2-[[[3-[(3,4,5,6-tetrahydro-2H-azepin-7-yl)amino]phenyl]carbonyl]amino]acetyl]amino]benzenepropanoic acid, trifluoroacetate salt, monohydrate] | > 200000 nM | 19.1 nM | 12100 nM | – | – |
| N=C(N)Nc1cccc(C(=O)NCC(=O)NC(CC(=O)O)c2cc(Cl)cc(Br)c2O)c1 (racemic) [Example 233, (±)β-[[2-[[[3-[(aminoiminomethyl)amino]phenyl]carbonyl]amino]acetyl]amino]-3-bromo-5-chloro-2-hydroxybezenepropanoic acid, trifluoroacetate salt, monohydrate] | – | 3.31 nM | 647 nM | > 200000 nM | – |
| C#C[C@H](CC(=O)O)NC(=O)CNC(=O)c1cccc(NC(=N)N2CCCC2)c1 [Example 34, βS-[[2-[[[3-[[imino(1-pyrrolidinyl)methyl]amino]phenyl]carbonyl]amino]acetyl]amino]-4-pentynoic acid, trifluoroacetate salt] | > 200000 nM | 94.3 nM | 269 nM | – | – |
| C#C[C@H](CC(=O)O)NC(=O)CNC(=O)c1c(F)c(F)cc(NC(=N)N)c1F [Example 35, βS-[[2-[[[3-[(aminoiminomethyl)amino]-2,5,6-trifluorophenyl]carbonyl]amino]acetyl]amino]-4-pentynoic acid, trifluoroacetate salt] | 69500 nM | 57.1 nM | 6.21 nM | – | – |
| C#C[C@H](CC(=O)O)NC(=O)CNC(=O)c1cccc(NC(N)=O)c1 [Example 40, 3S-[[2-[[[3-(aminocarbonylamino)phenyl]carbonyl]amino]acetyl]amino]-4-pentynoic acid] | > 200000 nM | 10.3 nM | 834 nM | – | – |
| C#C[C@H](CC(=O)O)NC(=O)CNC(=O)c1cccc(NC(=O)NCc2ccccc2)c1 [Example 44, 3S-[[2-[[[3-[[[(phenylmethyl)amino]carbonyl]amino]phenyl]carbonyl]amino]acetyl]amino]-4-pentynoic acid] | > 20000 nM | 0.33 nM | 998 nM | – | – |
| N=C(N)Nc1cccc(C(=O)NCC(=O)NC(CC(=O)O)CC(=O)O)c1 [Example 53, 3-[[2-[[[3-[(aminoiminomethyl)amino]phenyl]carbonyl]amino]acetyl]amino]pentanedioic acid, trifluoroacetate salt] | > 200000 nM | 54.6 nM | 930 nM | – | – |
| N=C(N)Nc1cccc(C(=O)NCC(=O)N[C@H](CSc2ccccc2)CC(=O)O)c1 [Example 68, 3S-[[2-[[[3-[(aminoiminomethyl)amino]phenyl]carbonyl]amino]acetyl]amino]-4-(phenylthio)butanoic acid, trifluoroacetate salt] | > 200000 nM | 5.48 nM | 125 nM | – | – |
| N=C(N)Nc1cccc(C(=O)NCC(=O)N[C@H](CSc2ccccc2C(=O)O)CC(=O)O)c1 [Example 72, 2-[[2S-[[2-[[[3-[(aminoiminomethyl)amino]phenyl]carbonyl]amino]acetyl]amino]-2-(carboxymethyl)ethyl]thio]benzoic acid, trifluoroacetate salt] | > 200000 nM | 1.21 nM | 152 nM | – | – |
| N=C(N)Nc1cccc(C(=O)NCC(=O)NC(CC(=O)O)c2ccc3c(c2)OCCO3)c1 (stereo not drawn) [Example 95, β-[[(2-[[[3-[(aminoiminomethyl)amino]phenyl]carbonyl]amino]acetyl]amino]-1,4-benzodioxin-6-propanoic acid, trifluoroacetate salt] | > 200000 nM | 1.43 nM | 25.4 nM | – | – |
| O=C(O)CCNC(=O)CNC(=O)c1cccc(NC(=O)NCc2ccccc2)c1 [Example 103, 3-[[2-[[[3-[[[(phenylmethyl)amino]carbonyl]amino]phenyl]carbonyl]amino]acetyl]amino]propanoic acid] | > 20000 nM | 16.6 nM | 19100 nM | – | – |
| O=C(O)CC(NC(=O)CNC(=O)c1cccc(NC(=O)Nc2ccccc2)c1)c1cccnc1 (stereo not drawn) [Example 108, β-[[2-[[[3-[[(phenylamino]carbonyl]amino]phenyl]carbonyl]amino]acetyl]amino]pyridine-3-propanoic acid, trifluoroacetate salt] | > 200000 nM | 25.2 nM | 4870 nM | – | – |
| NC(=S)Nc1cccc(C(=O)NCC(=O)NC(CC(=O)O)c2ccccc2)c1 (stereo not drawn) [Example 117, β-[[2-[[[3-[(aminothioxomethyl)amino]phenyl]carbonyl]amino]acetyl]amino]benzenepropanoic acid] | > 200000 nM | 60.1 nM | 20100 nM | – | – |
| O=C(O)CC(NC(=O)CNC(=O)c1cccc(NC(=O)NCc2ccccc2)c1)c1ccc2c(c1)OCO2 (stereo not drawn) [Example 122, β-[[2-[[[3-[[[(phenylmethyl)amino]carbonyl]amino]phenyl]carbonyl]amino]acetyl]amino]-1,3-benzodioxole-5-propanoic acid] | – | 0.79 nM | 420 nM | – | > 20000 nM |
| O=C(O)CC(NC(=O)CNC(=O)c1cccc(NC(=O)Nc2ccccc2)c1)c1ccc2c(c1)OCO2 (stereo not drawn) [Example 124, β-[[2-[[[3-3-[[(phenylamino]carbonyl]amino]phenyl]carbonyl]amino]acetyl]amino]-1,3-benzodioxole-5-propanoic acid] | > 20000 nM | 22 nM | 317 nM | – | – |
| NS(=O)(=O)c1ccc(CNC(=O)Nc2cccc(C(=O)NCC(=O)NC(CC(=O)O)c3cccnc3)c2)cc1 (stereo not drawn) [Example 126, β-[[2-[[[3-[[[[(4-(aminosulfonyl)phenylmethyl]amino]carbonyl]amino]phenyl]carbonyl]amino]acetyl]amino]pyridine-3-propanoic acid, trifluoroacetate salt] | > 200000 nM | 2.48 nM | 2010 nM | – | – |
| O=C(O)CC(NC(=O)CNC(=O)c1cccc(NC(=O)NCc2cccnc2)c1)c1cccnc1 (stereo not drawn) [Example 127, β-[[2-[[[3-[[[3-pyridinylmethyl)amino]carbonyl]amino]phenyl]carbonyl]amino]acetyl]amino]pyridine-3-propanoic acid, bis trifluoroacetate salt] | > 200000 nM | 0.51 nM | 461 nM | – | – |
| O=C(O)CCNC(=O)Nc1cccc(C(=O)NCC(=O)NC(CC(=O)O)c2cccnc2)c1 (stereo not drawn) [Example 129, β-[[2-[[[3-[[[(2-carboxyethyl)amino]carbonyl]aminophenyl]carbonyl]amino]acetyl]amino]pyridine-3-propanoic acid, trifluoroacetate salt] | > 200000 nM | 68.9 nM | 9460 nM | – | – |
| O=C(O)CC(NC(=O)CNC(=O)c1cccc(NC(=O)NCCc2ccccc2)c1)c1cccnc1 (stereo not drawn) [Example 130, β-[[2-[[[3-[[[(2-phenylethyl)amino]carbonyl]amino]phenyl]carbonyl]amino]acetyl]amino]pyridine-3-propanoic acid, trifluoroacetate salt] | > 200000 nM | 47 nM | 2690 nM | – | – |
| O=C(O)CC(NC(=O)CNC(=O)c1cccc(NC(=O)NCc2cccc3ccccc23)c1)c1cccnc1 (stereo not drawn) [Example 131, β-[[2-[[[3-[[[(1-naphthalenylmethyl)amino]carbonyl]amino]phenyl]carbonyl]amino]acetyl]amino]pyridine-3-propanoic acid, trifluoroacetate salt] | > 20000 nM | 3.82 nM | 1760 nM | – | – |
| N#C/N=C(\NCc1ccccc1)Nc1cccc(C(=O)NCC(=O)NC(CC(=O)O)c2ccccc2)c1 (stereo not drawn) [Example 136, β-[[2-[[[3-[[(cyanoimino)[(phenylmethyl)amino]methyl]amino]phenyl]carbonyl]amino]acetyl]amino]benzenepropanoic acid] | > 20000 nM | 54.4 nM | 14200 nM | – | – |
